# Experimental data: ChEMBL document CHEMBL4699602, “Stapled and Xenopus Glucagon-Like Peptide 1 (GLP-1)-Based Dual GLP-1/Gastrin Receptor Agonists with Improved Metabolic Benefits in Rodent Models of Obesity and Diabetes” (J Med Chem, 2020)
# Where a SMILES comes first, the peptide text is derived from it.
# Target: Glucagon-like peptide 1 receptor (Homo sapiens, UniProt P43220)
# Experiment: Agonist activity at human GLP-1R expressed in HEK293 cells assessed as stimulation of cAMP accumulation incubated for 20 mins
# Format: functional, cell-based
# Sequence of Glucagon-like peptide 1 receptor (P43220 whole entry): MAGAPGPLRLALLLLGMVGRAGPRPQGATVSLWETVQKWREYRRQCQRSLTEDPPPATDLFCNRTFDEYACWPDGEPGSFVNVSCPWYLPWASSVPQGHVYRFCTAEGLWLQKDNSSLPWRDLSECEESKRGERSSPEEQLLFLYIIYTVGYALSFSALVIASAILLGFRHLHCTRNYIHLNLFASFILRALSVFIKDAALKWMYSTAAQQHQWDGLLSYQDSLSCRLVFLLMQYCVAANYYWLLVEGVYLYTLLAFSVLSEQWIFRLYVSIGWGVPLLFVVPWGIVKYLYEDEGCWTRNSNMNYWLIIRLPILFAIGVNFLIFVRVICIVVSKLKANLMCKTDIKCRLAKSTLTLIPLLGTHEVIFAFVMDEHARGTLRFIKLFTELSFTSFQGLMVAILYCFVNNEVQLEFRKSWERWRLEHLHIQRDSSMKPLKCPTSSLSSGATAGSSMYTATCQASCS
row,SMILES,EC50 [nM]
1,CC[C@H](C)[C@H](NC(=O)[C@H](CC(C)C)NC(=O)[C@H](Cc1c[nH]c2ccccc12)NC(=O)[C@H](CCC(=O)O)NC(=O)[C@@H](NC(=O)[C@H](Cc1ccccc1)NC(=O)[C@H](CCC(=O)O)NC(=O)[C@H](CCCCN)NC(=O)[C@H](C)NC(=O)[C@H](CS)NC(=O)[C@H](CCC(=O)O)NC(=O)[C@H](CCC(=O)O)NC(=O)[C@H](CCC(=O)O)NC(=O)[C@H](CC(C)C)NC(=O)[C@H](Cc1ccc(O)cc1)NC(=O)[C@H](CCC(=O)O)NC(=O)[C@H](CS)NC(=O)[C@@H](NC(=O)[C@H](CC(=O)O)NC(=O)[C@H](CC(N)=O)NC(=O)[C@@H](NC(=O)[C@H](Cc1ccc(O)cc1)NC(=O)[C@@H](NC(=O)CNC(=O)[C@H](CCC(=O)O)NC(=O)C(C)(C)NC(=O)[C@@H](N)Cc1c[nH]cn1)[C@@H](C)O)[C@@H](C)O)C(C)C)[C@@H](C)CC)C(=O)N[C@@H](CCCCN)C(=O)NCC(=O)N[C@@H](CCCCN)C(=O)N1CCC[C@H]1C(=O)N[C@@H](CO)C(=O)N[C@@H](CO)C(=O)NCC(=O)N[C@@H](C)C(=O)N1CCC[C@H]1C(=O)N1CCC[C@H]1C(=O)N1CCC[C@H]1C(=O)N[C@@H](CO)C(N)=O (HELM PEPTIDE1{H.[Aib].E.G.T.Y.T.N.D.V.C.E.Y.L.E.E.E.C.A.K.E.F.I.E.W.L.I.K.G.K.P.S.S.G.A.P.P.P.S.[am]}$$$$V2.0),0.15
2,CC[C@H](C)[C@H](NC(=O)[C@H](CC(C)C)NC(=O)[C@H](Cc1c[nH]c2ccccc12)NC(=O)[C@H](CCC(=O)O)NC(=O)[C@@H](NC(=O)[C@H](Cc1ccccc1)NC(=O)[C@H](CCC(=O)O)NC(=O)[C@H](CCCCN)NC(=O)[C@H](C)NC(=O)[C@H](CS)NC(=O)[C@H](CCC(=O)O)NC(=O)[C@H](CCC(=O)O)NC(=O)[C@H](CCC(=O)O)NC(=O)[C@H](CC(C)C)NC(=O)[C@H](Cc1ccc(O)cc1)NC(=O)[C@H](CCC(=O)O)NC(=O)[C@H](CS)NC(=O)[C@@H](NC(=O)[C@H](CC(=O)O)NC(=O)[C@H](CC(N)=O)NC(=O)[C@@H](NC(=O)[C@H](Cc1ccc(O)cc1)NC(=O)[C@@H](NC(=O)CNC(=O)[C@H](CCC(=O)O)NC(=O)C(C)(C)NC(=O)[C@@H](N)Cc1c[nH]cn1)[C@@H](C)O)[C@@H](C)O)C(C)C)[C@@H](C)CC)C(=O)N[C@@H](CCCCN)C(=O)NCC(=O)N[C@@H](CCCCN)C(N)=O (HELM PEPTIDE1{H.[Aib].E.G.T.Y.T.N.D.V.C.E.Y.L.E.E.E.C.A.K.E.F.I.E.W.L.I.K.G.K.[am]}$$$$V2.0),0.32
3,CC[C@H](C)[C@H](NC(=O)[C@H](CC(C)C)NC(=O)[C@H](Cc1c[nH]c2ccccc12)NC(=O)[C@H](CCC(=O)O)NC(=O)[C@@H](NC(=O)[C@H](Cc1ccccc1)NC(=O)[C@H](CCC(=O)O)NC(=O)[C@H](CCCCN)NC(=O)[C@H](CS)NC(=O)[C@H](C)NC(=O)[C@H](CCC(=O)O)NC(=O)[C@H](CCC(=O)O)NC(=O)[C@H](CCC(=O)O)NC(=O)[C@H](CC(C)C)NC(=O)[C@H](Cc1ccc(O)cc1)NC(=O)[C@H](CS)NC(=O)[C@@H](NC(=O)[C@@H](NC(=O)[C@H](CC(=O)O)NC(=O)[C@H](CC(N)=O)NC(=O)[C@@H](NC(=O)[C@H](Cc1ccc(O)cc1)NC(=O)[C@@H](NC(=O)CNC(=O)[C@H](CCC(=O)O)NC(=O)C(C)(C)NC(=O)[C@@H](N)Cc1c[nH]cn1)[C@@H](C)O)[C@@H](C)O)C(C)C)[C@@H](C)O)[C@@H](C)CC)C(=O)N[C@@H](CCCCN)C(=O)NCC(=O)N[C@@H](CCCCN)C(=O)N1CCC[C@H]1C(=O)N[C@@H](CO)C(=O)N[C@@H](CO)C(=O)NCC(=O)N[C@@H](C)C(=O)N1CCC[C@H]1C(=O)N1CCC[C@H]1C(=O)N1CCC[C@H]1C(=O)N[C@@H](CO)C(N)=O (HELM PEPTIDE1{H.[Aib].E.G.T.Y.T.N.D.V.T.C.Y.L.E.E.E.A.C.K.E.F.I.E.W.L.I.K.G.K.P.S.S.G.A.P.P.P.S.[am]}$$$$V2.0),0.12
4,CC[C@H](C)[C@H](NC(=O)[C@H](CC(C)C)NC(=O)[C@H](Cc1c[nH]c2ccccc12)NC(=O)[C@H](CCC(=O)O)NC(=O)[C@@H](NC(=O)[C@H](Cc1ccccc1)NC(=O)[C@H](CCC(=O)O)NC(=O)[C@H](CCCCN)NC(=O)[C@H](CS)NC(=O)[C@H](C)NC(=O)[C@H](CCC(=O)O)NC(=O)[C@H](CCC(=O)O)NC(=O)[C@H](CCC(=O)O)NC(=O)[C@H](CC(C)C)NC(=O)[C@H](Cc1ccc(O)cc1)NC(=O)[C@H](CS)NC(=O)[C@@H](NC(=O)[C@@H](NC(=O)[C@H](CC(=O)O)NC(=O)[C@H](CC(N)=O)NC(=O)[C@@H](NC(=O)[C@H](Cc1ccc(O)cc1)NC(=O)[C@@H](NC(=O)CNC(=O)[C@H](CCC(=O)O)NC(=O)C(C)(C)NC(=O)[C@@H](N)Cc1c[nH]cn1)[C@@H](C)O)[C@@H](C)O)C(C)C)[C@@H](C)O)[C@@H](C)CC)C(=O)N[C@@H](CCCCN)C(=O)NCC(=O)N[C@@H](CCCCN)C(N)=O (HELM PEPTIDE1{H.[Aib].E.G.T.Y.T.N.D.V.T.C.Y.L.E.E.E.A.C.K.E.F.I.E.W.L.I.K.G.K.[am]}$$$$V2.0),0.26
5,CC[C@H](C)[C@H](NC(=O)[C@H](CC(C)C)NC(=O)[C@H](Cc1c[nH]c2ccccc12)NC(=O)[C@H](CCC(=O)O)NC(=O)[C@@H](NC(=O)[C@H](Cc1ccccc1)NC(=O)[C@H](CCC(=O)O)NC(=O)[C@H](CS)NC(=O)[C@H](C)NC(=O)[C@H](C)NC(=O)[C@H](CCC(=O)O)NC(=O)[C@H](CCC(=O)O)NC(=O)[C@H](CCC(=O)O)NC(=O)[C@H](CC(C)C)NC(=O)[C@H](CS)NC(=O)[C@H](CCC(=O)O)NC(=O)[C@@H](NC(=O)[C@@H](NC(=O)[C@H](CC(=O)O)NC(=O)[C@H](CC(N)=O)NC(=O)[C@@H](NC(=O)[C@H](Cc1ccc(O)cc1)NC(=O)[C@@H](NC(=O)CNC(=O)[C@H](CCC(=O)O)NC(=O)C(C)(C)NC(=O)[C@@H](N)Cc1c[nH]cn1)[C@@H](C)O)[C@@H](C)O)C(C)C)[C@@H](C)O)[C@@H](C)CC)C(=O)N[C@@H](CCCCN)C(=O)NCC(=O)N[C@@H](CCCCN)C(=O)N1CCC[C@H]1C(=O)N[C@@H](CO)C(=O)N[C@@H](CO)C(=O)NCC(=O)N[C@@H](C)C(=O)N1CCC[C@H]1C(=O)N1CCC[C@H]1C(=O)N1CCC[C@H]1C(=O)N[C@@H](CO)C(N)=O (HELM PEPTIDE1{H.[Aib].E.G.T.Y.T.N.D.V.T.E.C.L.E.E.E.A.A.C.E.F.I.E.W.L.I.K.G.K.P.S.S.G.A.P.P.P.S.[am]}$$$$V2.0),0.19
6,CC[C@H](C)[C@H](NC(=O)[C@H](CC(C)C)NC(=O)[C@H](Cc1c[nH]c2ccccc12)NC(=O)[C@H](CCC(=O)O)NC(=O)[C@@H](NC(=O)[C@H](Cc1ccccc1)NC(=O)[C@H](CCC(=O)O)NC(=O)[C@H](CS)NC(=O)[C@H](C)NC(=O)[C@H](C)NC(=O)[C@H](CCC(=O)O)NC(=O)[C@H](CCC(=O)O)NC(=O)[C@H](CCC(=O)O)NC(=O)[C@H](CC(C)C)NC(=O)[C@H](CS)NC(=O)[C@H](CCC(=O)O)NC(=O)[C@@H](NC(=O)[C@@H](NC(=O)[C@H](CC(=O)O)NC(=O)[C@H](CC(N)=O)NC(=O)[C@@H](NC(=O)[C@H](Cc1ccc(O)cc1)NC(=O)[C@@H](NC(=O)CNC(=O)[C@H](CCC(=O)O)NC(=O)C(C)(C)NC(=O)[C@@H](N)Cc1c[nH]cn1)[C@@H](C)O)[C@@H](C)O)C(C)C)[C@@H](C)O)[C@@H](C)CC)C(=O)N[C@@H](CCCCN)C(=O)NCC(=O)N[C@@H](CCCCN)C(N)=O (HELM PEPTIDE1{H.[Aib].E.G.T.Y.T.N.D.V.T.E.C.L.E.E.E.A.A.C.E.F.I.E.W.L.I.K.G.K.[am]}$$$$V2.0),0.49
7,CC[C@H](C)[C@H](NC(=O)[C@H](CC(C)C)NC(=O)[C@H](Cc1c[nH]c2ccccc12)NC(=O)[C@H](CCC(=O)O)NC(=O)[C@@H](NC(=O)[C@H](CS)NC(=O)[C@H](CCC(=O)O)NC(=O)[C@H](CCCCN)NC(=O)[C@H](C)NC(=O)[C@H](C)NC(=O)[C@H](CCC(=O)O)NC(=O)[C@H](CCC(=O)O)NC(=O)[C@H](CS)NC(=O)[C@H](CC(C)C)NC(=O)[C@H](Cc1ccc(O)cc1)NC(=O)[C@H](CCC(=O)O)NC(=O)[C@@H](NC(=O)[C@@H](NC(=O)[C@H](CC(=O)O)NC(=O)[C@H](CC(N)=O)NC(=O)[C@@H](NC(=O)[C@H](Cc1ccc(O)cc1)NC(=O)[C@@H](NC(=O)CNC(=O)[C@H](CCC(=O)O)NC(=O)C(C)(C)NC(=O)[C@@H](N)Cc1c[nH]cn1)[C@@H](C)O)[C@@H](C)O)C(C)C)[C@@H](C)O)[C@@H](C)CC)C(=O)N[C@@H](CCCCN)C(=O)NCC(=O)N[C@@H](CCCCN)C(=O)N1CCC[C@H]1C(=O)N[C@@H](CO)C(=O)N[C@@H](CO)C(=O)NCC(=O)N[C@@H](C)C(=O)N1CCC[C@H]1C(=O)N1CCC[C@H]1C(=O)N1CCC[C@H]1C(=O)N[C@@H](CO)C(N)=O (HELM PEPTIDE1{H.[Aib].E.G.T.Y.T.N.D.V.T.E.Y.L.C.E.E.A.A.K.E.C.I.E.W.L.I.K.G.K.P.S.S.G.A.P.P.P.S.[am]}$$$$V2.0),0.22
8,CC[C@H](C)[C@H](NC(=O)[C@H](CC(C)C)NC(=O)[C@H](Cc1c[nH]c2ccccc12)NC(=O)[C@H](CCC(=O)O)NC(=O)[C@@H](NC(=O)[C@H](CS)NC(=O)[C@H](CCC(=O)O)NC(=O)[C@H](CCCCN)NC(=O)[C@H](C)NC(=O)[C@H](C)NC(=O)[C@H](CCC(=O)O)NC(=O)[C@H](CCC(=O)O)NC(=O)[C@H](CS)NC(=O)[C@H](CC(C)C)NC(=O)[C@H](Cc1ccc(O)cc1)NC(=O)[C@H](CCC(=O)O)NC(=O)[C@@H](NC(=O)[C@@H](NC(=O)[C@H](CC(=O)O)NC(=O)[C@H](CC(N)=O)NC(=O)[C@@H](NC(=O)[C@H](Cc1ccc(O)cc1)NC(=O)[C@@H](NC(=O)CNC(=O)[C@H](CCC(=O)O)NC(=O)C(C)(C)NC(=O)[C@@H](N)Cc1c[nH]cn1)[C@@H](C)O)[C@@H](C)O)C(C)C)[C@@H](C)O)[C@@H](C)CC)C(=O)N[C@@H](CCCCN)C(=O)NCC(=O)N[C@@H](CCCCN)C(N)=O (HELM PEPTIDE1{H.[Aib].E.G.T.Y.T.N.D.V.T.E.Y.L.C.E.E.A.A.K.E.C.I.E.W.L.I.K.G.K.[am]}$$$$V2.0),0.59
